Data on 15 molecules can be found in patent US9067937B2 (priority 2012, dated 2015).

Each structure is given as a SMILES string. Counter-ions that a name gives are not always drawn.

For one assay, the system named is HT1197 cells. In words: Cell-based assay, anti-proliferative activity, MELK-negative control (Cell Counting Kit-8, 72 hours). The following applies: Homo sapiens, HT1197, 72 h, read-out: IC50 (μM) (HTll97). Also noted: species or system human. How it is done: (§1) 100 micro-L of cell suspension was seeded onto 96-well microtiter plate (ViewPlate-96FTC, PerkinElmer). The initial cell concentration of 22Rv1, T47D, A549, DU4475, and HT1197 were 3,000 cells/well, 2,000 cells/well and 2,500 cells/well, respectively. Cellular growth was determined using Cell Counting Kit-8 (DOJINDO) at 72 hours after the exposure of the candidate inhibitors. […] Accurate IC50 values were calculated as described previously.

The target in a further assay is MELK (Homo sapiens, UniProt Q14680). Nature of the assay: Kinase assay (IMAP fluorescence polarization, FITC-labeled histone H3 peptide). The class given is biochemical. Conditions: 50 micro-M ATP. How it is done: MELK activity was determined in the presence or absence of compounds using fluorescein isothiocyanate-labeled (FITC-labeled) histone H3 peptide as a substrate. […] The serially diluted compounds, 0.8 ng/micro-L […] (Carna Biosciences) and 100 nM FITC-labeled histone H3 peptide were reacted in a reaction buffer (20 mM HEPES, 0.01% Tween-20, 0.3 mM MgCl2, 2 mM dithiothreitol, 50 micro-M ATP, pH 7.4) at room temperature for 1 hour. The reaction was stopped by the addition of three fold assay volume of progressive binding solution. […] IC50 values were calculated by nonlinear four parameter fit using SigmaPlot, version 10.0 (Systat Software, Inc.).
Sequence of MELK (Q14680 whole entry, looked up): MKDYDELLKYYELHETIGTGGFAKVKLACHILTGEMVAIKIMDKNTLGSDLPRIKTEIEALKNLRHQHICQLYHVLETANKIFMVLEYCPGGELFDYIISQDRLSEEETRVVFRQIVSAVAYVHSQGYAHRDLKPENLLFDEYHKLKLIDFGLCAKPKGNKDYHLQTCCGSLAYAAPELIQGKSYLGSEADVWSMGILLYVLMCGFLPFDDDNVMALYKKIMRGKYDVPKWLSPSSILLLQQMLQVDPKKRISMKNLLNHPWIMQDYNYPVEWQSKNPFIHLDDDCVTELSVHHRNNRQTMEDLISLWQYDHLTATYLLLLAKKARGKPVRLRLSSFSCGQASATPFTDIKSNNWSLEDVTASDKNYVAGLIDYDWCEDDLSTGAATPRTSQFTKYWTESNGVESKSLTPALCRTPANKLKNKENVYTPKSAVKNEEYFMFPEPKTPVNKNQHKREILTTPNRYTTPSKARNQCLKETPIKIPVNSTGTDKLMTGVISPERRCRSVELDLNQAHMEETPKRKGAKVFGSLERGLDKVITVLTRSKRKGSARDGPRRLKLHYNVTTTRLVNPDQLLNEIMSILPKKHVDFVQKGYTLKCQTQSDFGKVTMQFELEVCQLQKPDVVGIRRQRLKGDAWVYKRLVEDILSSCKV

For another assay, the system named is T47D cells. In words: Cell-based assay, anti-proliferative activity (Cell Counting Kit-8, 72 hours). Also noted: species or system human. Conditions: Homo sapiens, T47D, 72 h, read-out: IC50 (μM) (T47D). Here is the method: as §1, with “Active candidate inhibitors against MELK were evaluated for their target-specific cytotoxicity using 22Rv1, T47D, A549, DU4475 and HT-1197 cells was used for negative control. 100” for “100”

The next assay deals with 22Rv1 cells. Described as above. Details: species or system human. Conditions: Homo sapiens, 22Rv1, 72 h, read-out: IC50 (μM) (22Rvl). How it is done:
as §1, with “Active candidate inhibitors against MELK were evaluated for their target-specific cytotoxicity using 22Rv1, T47D, A549, DU4475 and HT-1197 cells was used for negative control. 100” for “100”

The next assay deals with DU4475 cells. Described as above. Details: species or system human. Conditions: Homo sapiens, DU-4475, 72 h, read-out: IC50 (μM) (DU4475). How it is done:
as §1, with “Active candidate inhibitors against MELK were evaluated for their target-specific cytotoxicity using 22Rv1, T47D, A549, DU4475 and HT-1197 cells was used for negative control. 100” for “100”

A further assay has as its system A549 cells. The description is as above. Also noted: species or system human. The following applies: Homo sapiens, A549, 72 h, read-out: IC50 (μM) (A549). Here is the method: as §1, with “Active candidate inhibitors against MELK were evaluated for their target-specific cytotoxicity using 22Rv1, T47D, A549, DU4475 and HT-1197 cells was used for negative control. 100” for “100”

For the molecule `CC(=O)c1cnc2ccc(-c3cc(Cl)c(O)c(Cl)c3)nc2c1N[C@H]1CC[C@H](CN2CCNCC2)CC1` [Example 70, 1-{6-(3,5-Dichloro-4-hydroxyphenyl)-4-[trans-4-(piperazin-1-ylmethyl)cyclohexylamino]-1,5-naphthyridin-3-yl}ethanone trihydrochloride], the IC50 in the assay on HT1197 cells came out at 3.9 µM; on MELK, 0.0006 µM; with T47D cells it was 0.021 µM; in the assay with 22Rv1 cells, 0.031 µM; with DU4475 cells it was 0.011 µM; with A549 cells, 0.084 µM.
Take `CCC(=O)c1cnc2ccc(-c3cc(F)c(O)c(Cl)c3)nc2c1N[C@H]1CC[C@H](CN(C)C)CC1` [Example 205, 1-[6-(3-chloro-5-fluoro-4-hydroxyphenyl)-4-({trans-4-[(dimethylamino)methyl]cyclohexyl}amino)-1,5-naphthyridin-3-yl)]propan-1-one dihydrochloride]: the IC50 with HT1197 cells turned out to be 0.69 µM; against MELK, 0.0028 µM; with T47D cells, 0.0083 µM; in the assay with 22Rv1 cells it was 0.022 µM; in the assay with DU4475 cells, 0.033 µM; in the assay on A549 cells, 0.032 µM.
`CC(=O)c1cnc2ccc(-c3cc(Cl)c(O)c(Cl)c3)nc2c1N[C@H]1CC[C@H](CCN(C)C)CC1` [Example 9, 1-[6-(3,5-Dichloro-4-hydroxyphenyl)-4-({trans-4-[2-(dimethylamino)ethyl]cyclohexyl}amino)-1,5-naphthyridin-3-yl]ethanone dihydrochloride]: the IC50 with HT1197 cells came to 0.27 µM; against MELK, 0.0007 µM; with T47D cells it was 0.0066 µM; with 22Rv1 cells, 0.011 µM; in the assay with DU4475 cells, 0.0055 µM; with A549 cells, 0.013 µM.
Consider `CN(C)C[C@H]1CC[C@H](Nc2c(C(=O)C3CC3)cnc3ccc(-c4cc(F)c(O)c(Cl)c4)nc23)CC1` [Example 5, (6-(3-Chloro-5-fluoro-4-hydroxyphenyl)-4-{trans-4-[(dimethylamino)methyl]cyclohexyl-amino}-1,5-naphthyridin-3-yl)(cyclopropyl)methanone dihydrochloride], for which the IC50 in the assay with HT1197 cells came to 0.018 µM; against MELK it was 0.0008 µM; in the assay on T47D cells it was 0.0029 µM; with 22Rv1 cells it was 0.0057 µM; in the assay with DU4475 cells, 0.003 µM; with A549 cells, 0.0061 µM.
For `COc1c(Cl)cc(-c2ccc3ncc(C(C)=O)c(N[C@H]4CC[C@H](CN(C)C)CC4)c3n2)cc1Cl` [Example 85, 1-[6-(3,5-Dichloro-4-methoxyphenyl)-4-{trans-4-[(dimethylamino)methyl]-cyclohexylamino}-1,5-naphthyridin-3-yl]ethanone dihydrochloride], the IC50 with HT1197 cells was determined as 6.5 µM; against MELK it was 0.12 µM; with T47D cells it was 0.43 µM; in the assay on 22Rv1 cells, 0.77 µM; in the assay on DU4475 cells it was 2.3 µM; with A549 cells it was 2.3 µM.
`CC(=O)c1cnc2ccc(-c3cc(F)c(O)c(Cl)c3)nc2c1Nc1ccc(CN2CCN(C)CC2)cc1` [Example 35, 1-[6-(3-Chloro-5-fluoro-4-hydroxyphenyl)-4-{4-[(4-methylpiperazin-1-yl)methyl]phenylamino}-1,5-naphthyridin-3-yl]ethanone trihydrochloride]: the IC50 was determined as 3.8 µM with HT1197 cells; 0.037 µM on MELK; 0.22 µM in the assay with T47D cells; 0.65 µM with 22Rv1 cells; 0.31 µM in the assay on DU4475 cells; 0.41 µM with A549 cells.
In the case of `CC(=O)c1cnc2ccc(-c3cc(Cl)c(O)c(Cl)c3)nc2c1N[C@H]1CC[C@H](CN2CCN(C)CC2)CC1` [Example 63, 1-(6-(3,5-Dichloro-4-hydroxyphenyl)-4-{trans-4-[(4-methylpiperazin-1-yl)methyl]cyclohexyl-amino}-1,5-naphthyridin-3-yl)ethanone trihydrochloride], the IC50 came to 0.13 µM in the assay with HT1197 cells; 0.0008 µM on MELK; 0.016 µM in the assay on T47D cells; 0.025 µM in the assay with 22Rv1 cells; 0.0092 µM with DU4475 cells; 0.02 µM in the assay with A549 cells.
With `CC(=O)c1cnc2ccc(-c3cc(Cl)c(O)c(Cl)c3)nc2c1N[C@H]1CC[C@H](CO)CC1` [Example 43, 1-(6-{3,5-Dichloro-4-hydroxyphenyl)-4-[trans-4-(hydroxymethyl)cyclohexyl]amino}-1,5-naphthyridin-3-yl)ethanone hydrochloride], the IC50 stood at 0.64 µM in the assay with HT1197 cells; 0.0031 µM against MELK; 0.024 µM with T47D cells; 0.085 µM in the assay on 22Rv1 cells; 0.019 µM in the assay on DU4475 cells; 0.057 µM with A549 cells.
On to `CN(C)Cc1ccc(Nc2c(S(C)(=O)=O)cnc3ccc(-c4cc(Cl)c(O)c(Cl)c4)nc23)cc1` [Example 16, 2,6-Dichloro-4-(8-{4-[(dimethylamino)methyl]phenylamino}-7-(methylsulfonyl)-1,5-naphthyridin-2-yl)phenol dihydrochloride], for which the IC50 in the assay on HT1197 cells is 4.4 µM; on MELK it was 0.0028 µM; in the assay with T47D cells, 0.078 µM; with 22Rv1 cells, 0.17 µM; in the assay on DU4475 cells, 0.031 µM; in the assay on A549 cells, 0.47 µM.
For `CC(=O)c1cnc2ccc(-c3cc(Cl)c(O)c(Cl)c3)nc2c1N[C@H]1CC[C@H](CN2CC[C@@H](F)C2)CC1` [Example 209, 1-[6-(3,5-dichloro-4-hydroxyphenyl)-4-({4-[((R)-3-fluoropyrrolidin-1yl)methyl]cyclohexyl}amino)-1,5-naphthyridin-3-yl]ethanone dihydrochloride], the IC50 in the assay with HT1197 cells was 0.12 µM; against MELK it was 0.002 µM; with T47D cells it was 0.036 µM; with 22Rv1 cells it was 0.032 µM; in the assay on DU4475 cells, 0.01 µM; in the assay on A549 cells, 0.037 µM.
Regarding `CC(=O)c1cnc2ccc(-c3ccncc3)nc2c1N[C@H]1CC[C@H](CN(C)C)CC1` [Example 56, 1-{4-[4-(trans-4-Dimethylamino)methylcyclohexylamino]-6-(pyridin-4-yl)-1,5-naphthyridin-3-yl}ethanone trihydrochloride], the IC50 is 1.7 µM in the assay with HT1197 cells; 0.016 µM against MELK; 0.38 µM in the assay on T47D cells; 0.86 µM with 22Rv1 cells; 0.46 µM in the assay with DU4475 cells; 0.52 µM with A549 cells.
As for `COc1cc(-c2ccc3ncc(C(C)=O)c(Nc4ccc(OCCN(C)C)nc4)c3n2)cc(Cl)c1O` [Example 23, 1-[6-(3-Chloro-4-hydroxy-5-methoxyphenyl)-4-{6-[2-(dimethylamino)ethoxy]pyridin-3-ylamino}-1,5-naphthyridin-3-yl]ethanone dihydrochloride], the IC50 is 8.9 µM in the assay on HT1197 cells; 0.0089 µM at MELK; 0.38 µM with T47D cells; 1.3 µM in the assay on 22Rv1 cells; 0.41 µM with DU4475 cells; 0.47 µM with A549 cells.
For `CN(C)C[C@H]1CC[C@H](Nc2c(C(=O)C3CCC3)cnc3ccc(-c4cc(Cl)c(O)c(Cl)c4)nc23)CC1` [Example 211, (6-(3,5-dichloro-4-hydroxyphenyl)-4-((4-[(dimethylamino)methyl{cyclohexyl)amino)-1,5-naphthyridin-3-yl) (cyclobutyl)methanone dihydrochloride], the IC50 with HT1197 cells turned out to be 0.0077 µM; at MELK, 0.0027 µM; with T47D cells, 0.0034 µM; in the assay on 22Rv1 cells it was 0.0072 µM; in the assay with DU4475 cells it was 0.003 µM; with A549 cells, 0.0076 µM.
`CC(=O)c1cnc2ccc(-c3cc(Cl)c(O)c(Cl)c3)nc2c1Nc1ccc(N2CCCC(N)C2)nc1` (stereo not drawn) [Example 64, 1-(4-{[6-(3-Aminopiperidin-1-yl)pyridin-3-yl]amino}-6-(3,5-dichloro-4-hydroxyphenyl)-1,5-naphthyridin-3-yl)ethanone trihydrochloride]: the IC50 stood at 2.9 µM with HT1197 cells; 0.0012 µM against MELK; 0.0064 µM with T47D cells; 0.016 µM with 22Rv1 cells; 0.016 µM in the assay on DU4475 cells; 0.07 µM with A549 cells.
On to `CC(=O)c1cnc2ccc(N3CCCC3)nc2c1N[C@H]1CC[C@H](CN2CCCC2)CC1` [Example 78, 1-{6-(Pyrrolidin-1-yl)-4-[trans-4-(pyrrolidin-1-ylmethyl)cyclohexylamino]-1,5-naphthyridin-3-yl}ethanone], for which the IC50 with HT1197 cells came out at 9.8 µM; against MELK it was 2 µM; in the assay with T47D cells, 5.4 µM; in the assay on 22Rv1 cells, 5.6 µM; in the assay on DU4475 cells it was 7.7 µM; in the assay on A549 cells, 6.8 µM.
